Results as given in publication PMC6102549, “Synthesis and Evaluation of C15 Triene Urushiol Derivatives as Potential Anticancer Agents and HDAC2 Inhibitor” (Molecules : A Journal of Synthetic Chemistry and Natural …, 2018).
pIC50: −log10 of the molar value.

Key:
[1] = test system: HepG2 cells; assay: PI single staining assay for cell cycle (flow cytometry); format: cell-based, human; conditions: for G1 (%) / G2 (%) / S (%): 72 h
Experimental: After the cells were tested with three different doses of Compound 1 (1, 3, and 12 μM), they were collected and detected by flow cytometry. […] Compared with the blank control group, the proportion of cells in G0/G1 phase of each dose of compound 1 increased gradually, but both the percentage of S stage cells and the proportion of cells in G2/M stage decreased to some extent. […]
Detection of cell cycle by PI single staining
1, the logarithmic growth phase were digested and inoculated into six well plates, the next day, after the cells adhered, according to the group set to join the corresponding drug containing medium, and the establishment of the negative control group; 2, after the action of 72h, the cells were digested with 0.25% pancreatin (not containing […]
3, 5 x 10^5 cells were collected by PBS scrubbing cells (centrifuge 2000rpm, 5min).
4, the single cell suspension prepared was fixed for 2 hours (or overnight) with a volume fraction of 70% ethanol, and stored at 4 ℃. Before washing, PBS was used to remove the fixative solution (if needed, cell suspension was filtered through 200 mesh mesh).
5 plus 100 mu L RNase A 37 ℃ water bath 30min;
6, adding 400 L PI dyeing and avoiding light 30min at 4 ℃.
7 check the machine and record the red fluorescence at the excitation wavelength of 488nm. […]

[2] = test system: HepG2 cells; assay: Calcium content detection (Fluo-3 probe, flow cytometry); format: cell-based, human; conditions: for Mean (calcium, Fluo-3 fluorescence): 72 h
Experimental: Calcium content detection
(1) inoculate the logarithmic growth cells into the six-hole plate. The next day, after the cells are adhered to the wall, according to the group . The culture medium containing medicine was added and the negative control group was set up at the same time.
(§1) (2) after 72 hours of treatment, the cells were digested with 0.25% trypsin (excluding […]
(§2) (3) 5 × 10 ~ 5 cells were collected by PBS washing cells twice (centrifugation 2000rpm for 5 […]
(4) adding 5 μ M Fluo-3 probe and mixing it to 37 degrees to avoid light for 30 min;

[3] = test system: HepG2 cells; assay: Morphological observation of HepG2 cells; format: cell-based, human; conditions: 6.25, 25 and 50 μM
Experimental: The mortality rate of HepG2 cells was increasing faster on higher concentration of compound 1. The inhibition of cell proliferation strengthened over time. […] The cells became round, the volume became smaller and the refraction decreased. When the cells were treated with high concentration of compound 1, the cells were suspended and shed. The cells no longer adhered to the wall. They gradually became round, and the membrane ruptured, shrank and finally lost vitality.

[4] = test system: LO2 cells; assay: MTT assay, toxic effect on normal liver cells LO2; format: cell-based; conditions: in vitro
Experimental: (§3) As shown in Figure 1 and Table 1, compounds 1–16 were evaluated for their inhibitory effects on the proliferation of HepG2 and LO2 cells by MTT assay. […] It provided the experimental basis for the subsequent synthesis of attenuating and improving urushiol derivatives.
(§4) Detection of cell proliferation by MTT
(§5) MTT assay was used to determine the inhibitory effect of the sample on the proliferation of HepG2 cells. The tumor cells of logarithmic growth stage were inoculated with 3.5 * 103 / well in 96 well culture plate. 0.2 ml/pore system was cultured for 72 h with different concentrations of samples. Then 20μL(final concentration 0.5 mg / mL) of MTT were added to each pore for 4 h. The supernatant was carefully adsorbed, DMSO 0.15 mL was added to each pore, and oscillatory mixing was carried out. The absorbance (A) value at 490 nm wavelength was measured by enzyme labeling instrument. The inhibition rate of cell proliferation was calculated as follows: [(A value of negative control group-A value of blank group)-(A value of experimental group A value of blank group)] / (negative pair group A-A value of blank group) × 100.Statistical method. The statistical analysis was carried out by SPSS 17.0 statistical software. The measured data were described by x ±s, and the mean of the two samples was compared with t test (P < 0. 05).
(§6) Materials and methods: Main reagents and instruments […]
(§7) Full-range rainbow […]
(§8) The HepG2 cells were cultured in a saturated humidity incubator with 90% […]
(§9) Jiangsu Kaiji Biotechnology Co., Ltd. Main reagents and consumables Cell culture bottle […]
(§10) Cell proliferation measured by MTT
(§11) 1) the cells were digested and counted, the cell suspension was prepared by 3 x 10^4 /ml, and 100 micron L cell suspension was added to each hole in the 96 hole cell culture plate.
(§12) 2) 96 hole cell culture plate was placed in 37, 5%, CO2 culture box for 24 hours.
(§13) 3) use the medium to dilute the drug to the desired working fluid concentration, add 100 micron l per hole to the corresponding drug medium, and establish a negative control group and a positive control group (paclitaxel, 20ug/ml).
(§14) 4) 96 hole cell culture plate was placed at 37 ℃ and 5% CO2 incubator for 72 hours.
(§15) 5) 96 hole board for MTT staining, lambda =490nm, OD value determination; a. 20 μL MTT (5mg/ml) per hole was added to the culture box for 4 hours. b. discarding the supernatant, adding 150 μL DMSO for each hole, and gently mixing the […]
(§16) c. lambda =490nm, ELISA od readout per hole, the inhibition rate was calculated.
(§17) 6) calculate the inhibition rate of each group.The inhibition rate (%) = (negative control group OD value of experimental group / OD) negative control group OD x 100% […]
(§18) 7 check the machine and record the red fluorescence at the excitation wavelength of 488nm.
(§19) Detection of apoptosis by Annexin-V FITC/PI double staining
(§20) (1) inoculate the logarithmic growth cells into the six-hole plate. The next day, after the cells are adhered to the wall, according to the group . The culture medium containing medicine was added and the negative control group was set up at the same time
as §1
(§21) (3) 5 × 10 ~ 5 cells were collected by PBS washing cells twice (centrifugation 2000rpm for 5

[5] = test system: HepG2 cells; assay: Annexin-V FITC/PI double staining for apoptosis (flow cytometry); format: cell-based, human; conditions: 72 h
Experimental: After treating HepG2 cells with three concentrations of compound 1 for 72 h, flow cytometry was used to detect the apoptosis rate changes. […]
as §19
(1) inoculate the logarithmic growth cells into the six-hole plate. The next day, after the cells are adhered to the wall, according to the group . […]
as §1, §2
(4) adding 500 μ L Binding Buffer suspension cells;
(5) After adding 5 μ L Annexin V-FITC, adding 5 μ L Pi, mixing;
(6) at room temperature, no light, the reaction time was 5 ~ 15 min, and the apoptosis was detected by flow cytometry. […]

[6] = test system: HepG2 cells; assay: JC-1 staining assay of mitochondrial membrane potential; format: cell-based, human
Experimental: Detection of mitochondrial membrane potential by JC-1 staining
1inoculate the logarithmic growth cell digestion into the six-hole plate, the next day, after the cells adhered to the wall, according to the group set up to add the corresponding drug medium, and set up a negative control group at the same time;
(2) the cell concentration was collected and adjusted to 1 × 10^6 / ml by PBS washing (centrifugation 2000rpm for 5 min);
(3) 100 μ L 10 × Incubation Buffer and 900 μ L sterilized deionized water were diluted to 1 × Incubation buffer, and then preheated to 37 ℃;
(4) 500 μ L 1 × Incubation buffer was absorbed and 1 μ L JC-1 was added to prepare JC-1 […]
(5) the cells were incubated in a incubator containing CO 2 at 37 ℃ for 15 ~ 20 min with […]
(6) the cells were collected by centrifugation at room temperature for 5 min and washed twice with 1 × Incubation Buffer.
(7) resuspension cells of 500 μ L 1 × Incubation Buffer;
(8) on the computer test. […]

[7] = test system: HepG2 cells; assay: MTT assay, inhibition of proliferation of HepG2 cells; format: cell-based, human; conditions: for pIC50: in vitro, 72 h
Experimental: as §3, §4, §5, §6, §7, §8, §9, §10, §11, §12, §13, §14, §15, §16, §17, §18, §19, §20, §1, §21

[8] = test system: HDAC2; assay: Western blot of HDAC2 expression in HepG2 cells; format: cell-based, human; conditions: versus hepatoma cell group, p < 0.05
Text: The total protein was extracted from the logarithmic growth phase of hepatoma HepG2 cell line, and the expression of HDAC2 was detected by Western blot method with urushiol derivative compound 1(see Figure 3). […] The mechanism was probably related to the inhibition of HDAC2 expression.
as §4, §5, §6

C/C=C\C=C\C/C=C\CCCCCCCc1cccc(O)c1O[Si](CCCS)(OC)OC [Compound 1]
G1 (%) ([1]; HepG2, 1 μM): 54.48%
G2 (%) ([1]; HepG2, 1 μM): 15.79%
S (%) ([1]; HepG2, 1 μM): 29.72%
G1 (%) ([1]; HepG2, 3 μM): 60.17%
G2 (%) ([1]; HepG2, 3 μM): 13.64%
S (%) ([1]; HepG2, 3 μM): 26.19%
G1 (%) ([1]; HepG2, 12 μM): 65.80%
G2 (%) ([1]; HepG2, 12 μM): 13.79%
S (%) ([1]; HepG2, 12 μM): 20.40%
effect on cell cycle (in words) ([1]; HepG2, 1, 3 and 12 μM): block cells in G0/G1 phase
Mean (calcium, Fluo-3 fluorescence) ([2]; HepG2, 1 μm): 65.01
Mean (calcium, Fluo-3 fluorescence) ([2]; HepG2, 3 μm): 94.39
Mean (calcium, Fluo-3 fluorescence) ([2]; HepG2, 12 μm): 136.80
intracellular calcium concentration (in words) ([2]; HepG2, compared with blank control group): increased
proliferation of HepG2 cells by morphological observation (in words) [3]: gradually inhibited
pIC50 ([4]; Homo sapiens, L02, 72 h): 3.82
pIC50 ([4]; 72 h): 3.82
Apoptosis (%) ([5]; HepG2, 1 μm): 15.73%
LL (%) ([5]; HepG2, 1 μm): 82.71%
LR (%) ([5]; HepG2, 1 μm): 9.38%
UL (%) ([5]; HepG2, 1 μm): 1.56%
UR (%) ([5]; HepG2, 1 μm): 6.35%
Apoptosis (%) ([5]; HepG2, 3 μm): 32.60%
LL (%) ([5]; HepG2, 3 μm): 67.33%
LR (%) ([5]; HepG2, 3 μm): 16.42%
UL (%) ([5]; HepG2, 3 μm): 0.07%
UR (%) ([5]; HepG2, 3 μm): 16.18%
Apoptosis (%) ([5]; HepG2, 12 μm): 47.87%
LL (%) ([5]; HepG2, 12 μm): 48.91%
LR (%) ([5]; HepG2, 12 μm): 37.68%
UL (%) ([5]; HepG2, 12 μm): 3.24%
UR (%) ([5]; HepG2, 12 μm): 10.19%
UR % Gated ([6]; HepG2, JC-1, 12 μM): 46.18%
Green Fluorescence (%) (LR % gated) ([6]; HepG2, JC-1, 1 μm): 16.72%
Green Fluorescence (%) (LR % gated) ([6]; HepG2, JC-1, 3 μm): 28.14%
Green Fluorescence (%) (LR % gated) ([6]; HepG2, JC-1, 12 μm): 53.82%
inhibitory activity on HepG2 cells proliferation (in words) [7]: strong
pIC50 ([7]; Homo sapiens, HepG2, 72 h): 5.10
pIC50 [7]: 5.10
expression of HDAC2 protein (in words) [8]: significantly lower

C/C=C\C=C\C/C=C\CCCCCCCc1cccc2c1OB(C(=O)C(F)(F)C(F)(F)F)O2 [Compound 2]
pIC50 ([4]; Homo sapiens, L02, 72 h): < 3.70
pIC50 ([7]; Homo sapiens, HepG2, 72 h): 3.70

C#CCOc1c(O)cccc1CCCCCCC/C=C\C/C=C/C=C\C [Compound 3]
pIC50 ([4]; Homo sapiens, L02, 72 h): < 3.70
pIC50 ([7]; Homo sapiens, HepG2, 72 h): < 3.70

C/C=C\C=C\C/C=C\CCCCCCCc1cccc2c1OB(c1ccccc1)O2 [Compound 4]
pIC50 ([4]; Homo sapiens, L02, 72 h): 3.74
inhibitory activity on HepG2 cells proliferation (in words) [7]: strong
pIC50 [7]: 4.81

C/C=C\C=C\C/C=C\CCCCCCCc1cccc2c1OB(c1ccncc1)O2 [Compound 5]
pIC50 ([4]; Homo sapiens, L02, 72 h): < 3.70
pIC50 ([7]; Homo sapiens, HepG2, 72 h): 3.74

C/C=C\C=C\C/C=C\CCCCCCCc1cccc2c1OB(c1ccnc(F)c1)O2 [Compound 6]
pIC50 ([4]; Homo sapiens, L02, 72 h): < 3.70
pIC50 ([7]; Homo sapiens, HepG2, 72 h): < 3.70

C/C=C\C=C\C/C=C\CCCCCCCc1cccc2c1OC(C)(C(C)Br)O2 (stereo not drawn) [Compound 7]
pIC50 ([4]; Homo sapiens, L02, 72 h): < 3.70
pIC50 ([7]; Homo sapiens, HepG2, 72 h): 4.05

C/C=C\C=C\C/C=C\CCCCCCCc1cccc(O)c1NS(C)(=O)=O [Compound 9]
pIC50 ([4]; Homo sapiens, L02, 72 h): 3.92
inhibitory activity on HepG2 cells proliferation (in words) [7]: strong
pIC50 ([7]; Homo sapiens, HepG2, 72 h): 4.82

C/C=C\C=C\C/C=C\CCCCCCCc1ccc2c(C)cc(=O)oc2c1O [Compound 10, 8-hydroxy-4-methyl-7-((8Z,11E,13Z)-pentadeca-8,11,13-trien-1-yl)-2H-chro men-2-one]
pIC50 ([4]; Homo sapiens, L02, 72 h): 3.74
pIC50 ([4]; 72 h): 3.70
pIC50 ([7]; Homo sapiens, HepG2, 72 h): ~4.55
pIC50 [7]: 4.54

C/C=C\C=C\C/C=C\CCCCCCCc1ccc2c(C)cc(=O)oc2c1OB(O)c1ccccc1 [Compound 14]
pIC50 ([4]; Homo sapiens, L02, 72 h): < 3.70
pIC50 ([7]; Homo sapiens, HepG2, 72 h): 4.10

C/C=C\C=C\C/C=C\CCCCCCCc1ccc2c(C)cc(=O)oc2c1OB(O)c1ccncc1 [Compound 15]
pIC50 ([4]; Homo sapiens, L02, 72 h): < 3.70
pIC50 ([7]; Homo sapiens, HepG2, 72 h): 4.17

C/C=C\C=C\C/C=C\CCCCCCCc1ccc2c(C)cc(=O)oc2c1OB(O)c1ccnc(F)c1 [Compound 16]
pIC50 ([4]; Homo sapiens, L02, 72 h): < 3.70
pIC50 ([7]; Homo sapiens, HepG2, 72 h): 3.82
